Experimental data: patent publication US20240246918A1, “COMPOUNDS AND COMPOSITIONS AS EIF4E INHIBITORS AND THE USES THEREOF” (Ribometrix, Inc., priority 2022, published 2024)
Where two headings read alike, the source gives them in different places.

Tests used:
[1] = target: T1, human eIF4E protein (Homo sapiens, UniProt P06730); assay: Biochemical competitive binding assay (TR-FRET competition, EDA-m7GDP-ATTO-647N probe); details: read-out: hEIF4E TR-FRET IC50
T1 construct: purchased Novus NBP-45314
Outline: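 His-tagged human eIF4E (4 nM) was preincubated with Eu-anti-His antibody (2.5 nM) and added to compound (11-point, 4-fold dilutions) for 15 min. Then 5 nM EDA-m7GDP-ATTO-647N was added for 15 min, in HEPES pH 7.5, 100 mM KCl. The 665/620 TR-FRET ratio was normalized to controls, and IC50 was taken from 4-parameter fits.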

[2] = system: COLO 205 colorectal tumor cells; assay: Tumor cell viability inhibition assay (CellTiter-Glo 2.0, 72 hours); format: cell-based; details: COLO 205 cell viability
Outline: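 COLO 205 cells (1500/well, RPMI-1640 + 10% FBS) exposed for 72 h to an 11-point, 4-fold dilution series; cellular ATP read by CellTiter-Glo 2.0 luminescence. Data normalized to DMSO and maximum-inhibition controls; IC50 from 4-parameter curve fit.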

[3] = system: cyclin D1 protein levels in COLO 205 cells; assay: Cyclin D1 cellular inhibition assay (HTRF, 6 hours); format: cell-based; details: 6 hours of compound treatment, Cyclin D1 protein levels by HTRF, read-out: COLO 205 6 h Cyclin D1 TR-FRET IC50
Outline: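 COLO 205 cells in RPMI-1640 with 10% FBS treated 6 h with 11-point compound dilutions at 1% DMSO final. Lysates assayed for cyclin D1 by HTRF. Signal normalized to DMSO and maximum-inhibition controls, with IC50 from 4-parameter fit.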

T1 sequence (P06730 whole entry): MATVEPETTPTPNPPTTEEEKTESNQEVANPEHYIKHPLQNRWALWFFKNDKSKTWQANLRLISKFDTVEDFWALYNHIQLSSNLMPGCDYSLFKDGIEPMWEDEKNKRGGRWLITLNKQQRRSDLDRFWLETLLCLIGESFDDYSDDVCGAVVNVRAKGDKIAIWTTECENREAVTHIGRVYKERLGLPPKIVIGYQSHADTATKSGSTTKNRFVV

Structure (SMILES)	IC50 [1] [µM]	IC50 ([2]; Homo sapiens, COLO 205, 72 h) [µM]	IC50 ([3]; Homo sapiens, COLO 205, 6 h) [µM]	IC50 [2] [µM]	IC50 [3] [µM]
Cc1cc(-c2cc(Cl)ccc2OCCn2c(C)nc3c(c2=O)CC(N(C)CC2CC(F)(F)C2)CC3)c2scc(C(=O)NC3CC(F)(F)C3)c2n1 (stereo not drawn) [Compound 145]	0.5 to 5	5 to 20	> 20	–	–
COC1CCN(C2CCc3nc(C)n(CCOc4ccc(Cl)cc4-c4cc(C)nc5c(C(=O)NCC(F)F)csc45)c(=O)c3C2)CC1 (stereo not drawn) [Compound 142]	0.1 to 0.5	5 to 20	> 20	–	–
Cc1cc(-c2cc(Cl)ccc2OCCn2c(C)nc3c(c2=O)C[C@@H](N(C)C[C@H]2C[C@@H](C(F)(F)F)C2)CC3)c2scc(C(=O)O)c2n1 (stereo in doubt) [Compound 189]	< 0.1	< 5	< 5	–	–
Cc1cc(-c2cc(Cl)ccc2OCCn2c(C)nc3c(c2=O)CC(N(C)CC24CC(C2)C4)CC3)c2scc(C(=O)O)c2n1 (stereo not drawn) [Compound 205]	< 0.1	< 5	< 5	–	–
Cc1cc(-c2cc(Cl)ccc2OCCn2c(C)nc3c(c2=O)CC(N2CCc4ccncc4C2)CC3)c2scc(C(=O)O)c2n1 (stereo not drawn) [Compound 171]	< 0.1	< 5	< 5	–	–
Cc1cc(-c2cc(Cl)ccc2OCCn2c(C)nc3c(c2=O)C[C@H](N(C)C[C@H]2C[C@](C)(O)C2)CC3)c2scc(C(=O)O)c2n1 (relative stereo) [Compound 210]	< 0.1	> 20	> 20	–	–
COC1[C@@H]2CC[C@H]1CN(C1CCc3nc(C)n(CCOc4ccc(Cl)cc4-c4cc(C)nc5c(C(=O)O)csc45)c(=O)c3C1)C2 (stereo partly drawn) [Compound 152]	< 0.1	< 5	< 5	–	–
Cc1cc(-c2cc(Cl)ccc2OCCn2c(C)nc3c(c2=O)CC(N2CCC4(CC2)CC4)CC3)c2scc(C(=O)O)c2n1 (stereo not drawn) [Compound 192]	< 0.1	< 5	< 5	–	–
Cc1cc(-c2cc(Cl)ccc2OCCn2c(C)nc3c(c2=O)CC(N2CCc4ncccc4C2)CC3)c2scc(C(=O)O)c2n1 (stereo not drawn) [Compound 180]	< 0.1	< 5	< 5	–	–
Cc1cc(-c2cc(Cl)ccc2OCCn2c(C)nc3c(c2=O)CC(N2CC4(CC=C(F)CC4)C2)CC3)c2scc(C(=O)O)c2n1 (stereo not drawn) [Compound 162]	< 0.1	< 5	< 5	–	–
Cc1cc(-c2cc(Cl)ccc2OCCn2c(C)nc3c(c2=O)C[C@H](N(C)[C@H]2CC[C@@](C)(O)CC2)CC3)c2scc(C(=O)NS(C)(=O)=O)c2n1 (single isomer, unassigned) [Compound 214]	< 0.1	> 20	> 20	–	–
Cc1cc2c(cn1)CCN(C1CCc3nc(C)n(CCOc4ccc(Cl)cc4-c4cc(C)nc5c(C(=O)O)csc45)c(=O)c3C1)C2 (stereo not drawn) [Compound 177]	< 0.1	< 5	< 5	–	–
Cc1cc(-c2cc(Cl)ccc2OCCn2c(C)nc3c(c2=O)C[C@@H](N2C[C@@H]4CCC(F)(F)[C@@H]4C2)CC3)c2scc(C(=O)O)c2n1 (single isomer, unassigned) [Compound 169]	< 0.1	< 5	< 5	–	–
Cc1cc(-c2cc(Cl)ccc2OCCn2c(C)nc3c(c2=O)CC(N(C)C[C@H]2C[C@@H](C(F)(F)F)C2)CC3)c2scc(C(=O)O)c2n1 (stereo partly drawn) [Compound 204]	< 0.1	< 5	< 5	–	–
Cc1cc(-c2cc(Cl)ccc2OCCn2c(C)nc3c(c2=O)CC(N(C)Cc2ccnnc2)CC3)c2scc(C(=O)O)c2n1 (stereo not drawn) [Compound 188]	< 0.1	> 20	> 20	–	–
Cc1cc(-c2cc(Cl)ccc2OCCn2c(C)nc3c(c2=O)CC(N(C)Cc2ncccn2)CC3)c2scc(C(=O)O)c2n1 (stereo not drawn) [Compound 202]	< 0.1	> 20	5 to 20	–	–
Cc1cc(-c2cc(Cl)ccc2OCCn2c(C)nc3c(c2=O)CC(N(C)C2(C4CCC4)CC2)CC3)c2scc(C(=O)NS(C)(=O)=O)c2n1 (single isomer, unassigned) [Compound 232]	< 0.1	–	–	< 5	< 5
Cc1cc(-c2cc(Cl)ccc2OCCn2c(C)nc3c(c2=O)CC(N(C)Cc2ncc[nH]2)CC3)c2scc(C(=O)O)c2n1 (stereo not drawn) [Compound 190]	< 0.1	> 20	> 20	–	–
Cc1cc(-c2cc(Cl)ccc2OCCn2c(C)nc3c(c2=O)C[C@@H](N(C)C[C@H]2C[C@H](C(F)(F)F)C2)CC3)c2scc(C(=O)O)c2n1 (single isomer, unassigned) [Compound 221]	< 0.1	< 5	< 5	–	–
Cc1cc(-c2cc(Cl)ccc2OCCn2c(C)nc3c(c2=O)CC(N(C)Cc2cnc(C)s2)CC3)c2scc(C(=O)O)c2n1 (stereo not drawn) [Compound 185]	< 0.1	< 5	< 5	–	–
Cc1cc(-c2cc(Cl)ccc2OCCn2c(C)nc3c(c2=O)CC(N2CC4C(C2)C4(F)F)CC3)c2scc(C(=O)O)c2n1 (stereo not drawn) [Compound 172]	< 0.1	< 5	< 5	–	–

Second part, the compound after the results:

IC50 [1] [µM]	IC50 ([2]; Homo sapiens, COLO 205, 72 h) [µM]	IC50 ([3]; Homo sapiens, COLO 205, 6 h) [µM]	IC50 [2] [µM]	IC50 [3] [µM]	Structure (SMILES)
< 0.1	< 5	< 5	–	–	Cc1cc(-c2cc(Cl)ccc2OCCn2c(C)nc3c(c2=O)CC(N2CC4(CCC(F)(F)CC4)C2)CC3)c2scc(C(=O)O)c2n1 (stereo not drawn) [Compound 161]
< 0.1	5 to 20	5 to 20	–	–	Cc1cc(-c2cc(Cl)ccc2OCCn2c(C)nc3c(c2=O)CC(NCC2CC(F)(F)C2)CC3)c2scc(C(=O)O)c2n1 (stereo not drawn) [Compound 153]
< 0.1	< 5	< 5	–	–	COC1CCN(C2Cc3c(cc(C)n(CCOc4ccc(Cl)cc4-c4cc(C)nc5c(C(=O)O)csc45)c3=O)C3(CC3)C2)CC1 (stereo not drawn) [Compound 151]
< 0.1	< 5	< 5	–	–	Cc1cc(-c2cc(Cl)ccc2OCCn2c(C)nc3c(c2=O)CC(N2CCc4cccnc4C2)CC3)c2scc(C(=O)O)c2n1 (stereo not drawn) [Compound 165]
< 0.1	5 to 20	5 to 20	–	–	Cc1cc(-c2cc(Cl)ccc2OCCn2c(C)nc3c(c2=O)CC(N2CCC4(CC2)CC(O)(C(F)(F)F)C4)CC3)c2scc(C(=O)O)c2n1 (stereo not drawn) [Compound 212]
< 0.1	< 5	< 5	–	–	Cc1cc(-c2cc(Cl)ccc2OCCn2c(C)nc3c(c2=O)CC(N(C)Cc2cnccn2)CC3)c2scc(C(=O)O)c2n1 (stereo not drawn) [Compound 199]
< 0.1	> 20	> 20	–	–	Cc1cc(-c2cc(Cl)ccc2OCCn2c(C)nc3c(c2=O)CC(N(C)Cc2ccnc(N)n2)CC3)c2scc(C(=O)O)c2n1 (stereo not drawn) [Compound 158, 7-(2-(2-(6-(((2-aminopyrimidin-4-yl)methyl)(methyl)amino)-2-methyl-4-oxo-5,6,7,8-tetrahydroquinazolin-3(4H)-yl)ethoxy)-5-chlorophenyl)-5-methylthieno[3,2-b]pyridine-3-carboxylic acid]
< 0.1	< 5	< 5	–	–	Cc1cc(-c2cc(Cl)ccc2OCCn2c(C)nc3c(c2=O)CC(N(C)Cc2ccnc(C(F)(F)F)c2)CC3)c2scc(C(=O)O)c2n1 (stereo not drawn) [Compound 198]
< 0.1	5 to 20	> 20	–	–	Cc1cc(-c2cc(Cl)ccc2OCCn2c(C)nc3c(c2=O)CC(N(C)Cc2cccc(N)n2)CC3)c2scc(C(=O)O)c2n1 (stereo not drawn) [Compound 173]
< 0.1	< 5	< 5	–	–	Cc1cc(-c2cc(Cl)ccc2OCCn2c(C)nc3c(c2=O)CC(N(C)C2CC4(C2)CC(F)(F)C4)CC3)c2scc(C(=O)O)c2n1 (stereo not drawn) [Compound 203]
